Data as given in US12186304B2, “Method for treating cancer by combination of IAP inhibitor and modulator of immune checkpoint molecule” (ASCENTAGE PHARMA (SUZHOU) CO., LTD., priority 2018, dated 2025).

Columns and labels:
[1] = Phase I study (NCT03386526): safety and tolerability
Method: The Phase I dose escalation study included two parts.
Pembrolizumab was administered 200 mg IV on day 1 of a 21-day-cycle, until disease progression or untolerated toxicity.
The inclusion criteria for the Phase I study are: Age≥18 years; ECOG PS: 0-1;
Adequate hematologic, renal and liver functions; Advanced or metastatic solid tumor patients must be refractory to or intolerant of existing therapy(ies) known to provide clinical benefit for their condition.

[2] = tested on: Murine MC38 colon cancer cells; experiment: Subcutaneous xenograft model of murine MC38 colon cancer; type: in vivo, female C57BL/6 mice; conditions: MC38 s.c.
Method: • (1) APG-1387: provided by Jiangsu Ascentage Pharmaceutical Development Co., Ltd. The batch number is R12JA076140-A2 and PAPG-1387-DP-201305A. Preserved at 4° C., away from the light and sealed. APG-1387 was administered intravenously (i.v.) or intraperitoneally (i.p.) or at a dosage of 10 mL/kg. APG-1387 was dissolved in 5% castor oil/10% PEG400/85% normal saline. • (2) Anti-PD-1 antibody: purchased from BioXcell. The article number is BE0146 and BE0273. Preserved at 4° C. and sealed. The anti-PD-1 antibody was administered intraperitoneally at a concentration of 100 μg per mice or 200 μg per mice. • (3) Isotype control (anti-IgG): purchased from BioXcell, the product number is BE0089. […]
The mice were injected subcutaneously with 0.5-10×10^6 cells or in the ovary with 6×10^6 cells in situ to build the tumor xenograft model. […] For the orthotopic model, tumor growth was measured by examining in vivo fluorescence images 10 days after inoculation. […] Body weight and tumor size were measured twice per week during the experiment. […]
Using the fluorescence imaging technique, the strength of the fluorescent signal can represent the growth and metastasis of tumors in vivo.
The tumor growth curve and the animal body weight curve were plotted, with time on the X-axis and tumor volume and animal body weight on the Y-axis. […] All data were analyzed using SPSS 18.0 (*P<0.05, **P<0.01, ***P<0.001, ****P<0.0001).

[3] = tested on: metastatic pancreatic cancer; experiment: Phase I study: anti-tumor activity in pancreatic cancer; type: in vivo, human

With `CN[C@@H](C)C(=O)N[C@H]1CN(S(=O)(=O)c2cccc(S(=O)(=O)N3CC[C@H]4CC[C@@H](C(=O)NC(c5ccccc5)c5ccccc5)N4C(=O)[C@@H](NC(=O)[C@H](C)NC)C3)c2)CC[C@H]2CC[C@@H](C(=O)NC(c3ccccc3)c3ccccc3)N2C1=O` [APG-1387] the “TRAEs (all Grades): Tumor pain, patients” value ([1]; APG-1387 45 mg) was 0, the “# of pts discontinued treatment: Adverse Event” value ([1]; APG-1387 60 mg) was 2 and the “# of pts discontinued treatment: Clinical progression” value ([1]; APG-1387 60 mg) was 1. The “# of pts discontinued treatment: Disease progression” value ([1]; APG-1387 60 mg) was 1, the “# of pts discontinued treatment: Lack of efficacy” value ([1]; APG-1387 60 mg) was 0 and the “TRAEs (all Grades): Aspartate aminotransferase increased, patients” value ([1]; APG-1387 60 mg) was 0. For the same molecule, the “TRAEs (all Grades): Bell's palsy, % of patients” value ([1]; APG-1387 60 mg) was “(20.0%)”, the “TRAEs (all Grades): Bell's palsy, patients” value ([1]; APG-1387 60 mg) was 1 and the “TRAEs (all Grades): Blood bilirubin increased, % of patients” value ([1]; APG-1387 60 mg) was “(20.0%)”. For the same molecule, the “TRAEs (all Grades): Blood bilirubin increased, patients” value ([1]; APG-1387 60 mg) was 1, the “TRAEs (all Grades): Decreased appetite, patients” value ([1]; APG-1387 60 mg) was 0 and the “TRAEs (all Grades): Dehydration, patients” value ([1]; APG-1387 60 mg) was 0. The “TRAEs (all Grades): Diarrhoea, patients” value ([1]; APG-1387 60 mg) was 0, the “TRAEs (all Grades): Dyspepsia, patients” value ([1]; APG-1387 60 mg) was 0 and the “TRAEs (all Grades): Eructation, patients” value ([1]; APG-1387 60 mg) was 0. The “TRAEs (all Grades): Fatigue, patients” value ([1]; APG-1387 60 mg) was 0, the “TRAEs (all Grades): Headache, % of patients” value ([1]; APG-1387 60 mg) was “(20.0%)” and the “TRAEs (all Grades): Headache, patients” value ([1]; APG-1387 60 mg) was 1. For the same molecule, the “TRAEs (all Grades): Lipase increased, % of patients” value ([1]; APG-1387 60 mg) was “(20.0%)”, the “TRAEs (all Grades): Lipase increased, patients” value ([1]; APG-1387 60 mg) was 1 and the “TRAEs (all Grades): Myalgia, patients” value ([1]; APG-1387 60 mg) was 0. The “TRAEs (all Grades): Nausea, patients” value ([1]; APG-1387 60 mg) was 0, the “TRAEs (all Grades): Peripheral sensory neuropathy, patients” value ([1]; APG-1387 60 mg) was 0 and the “TRAEs (all Grades): Phlebitis, patients” value ([1]; APG-1387 60 mg) was 0. The “TRAEs (all Grades): Pneumonitis, % of patients” value ([1]; APG-1387 60 mg) was “(20.0%)”, the “TRAEs (all Grades): Pneumonitis, patients” value ([1]; APG-1387 60 mg) was 1 and the “TRAEs (all Grades): Pruritus, % of patients” value ([1]; APG-1387 60 mg) was “(20.0%)”. For the same molecule, the “TRAEs (all Grades): Pruritus, patients” value ([1]; APG-1387 60 mg) was 1, the “TRAEs (all Grades): Rash maculo-papular, % of patients” value ([1]; APG-1387 60 mg) was “(20.0%)” and the “TRAEs (all Grades): Rash maculo-papular, patients” value ([1]; APG-1387 60 mg) was 1. For the same molecule, the “TRAEs (all Grades): Tumor pain, patients” value ([1]; APG-1387 60 mg) was 0, the “MTD of APG-1387 monotherapy” value ([1]; IV once weekly in a 21-day-cycle) was 45 mg and the “# of pts discontinued treatment: Adverse Event” value ([1]; Overall) was 3. For the same molecule, the “# of pts discontinued treatment: Clinical progression” value ([1]; Overall) was 2, the “# of pts discontinued treatment: Disease progression” value ([1]; Overall) was 14 and the “# of pts discontinued treatment: Lack of efficacy” value ([1]; Overall) was 2. The “TRAEs (all Grades): Aspartate aminotransferase increased, % of patients” value ([1]; Overall) was “(4.2%)”, the “TRAEs (all Grades): Aspartate aminotransferase increased, patients” value ([1]; Overall) was 1 and the “TRAEs (all Grades): Bell's palsy, % of patients” value ([1]; Overall) was “(8.4%)”. The “TRAEs (all Grades): Bell's palsy, patients” value ([1]; Overall) was 2, the “TRAEs (all Grades): Blood bilirubin increased, % of patients” value ([1]; Overall) was “(4.2%)” and the “TRAEs (all Grades): Blood bilirubin increased, patients” value ([1]; Overall) was 1. The “TRAEs (all Grades): Decreased appetite, % of patients” value ([1]; Overall) was “(8.3%)”, the “TRAEs (all Grades): Decreased appetite, patients” value ([1]; Overall) was 2 and the “TRAEs (all Grades): Dehydration, % of patients” value ([1]; Overall) was “(4.2%)”. The “TRAEs (all Grades): Dehydration, patients” value ([1]; Overall) was 1, the “TRAEs (all Grades): Diarrhoea, % of patients” value ([1]; Overall) was “(4.2%)” and the “TRAEs (all Grades): Diarrhoea, patients” value ([1]; Overall) was 1. The “TRAEs (all Grades): Dyspepsia, % of patients” value ([1]; Overall) was “(4.2%)”, the “TRAEs (all Grades): Dyspepsia, patients” value ([1]; Overall) was 1 and the “TRAEs (all Grades): Eructation, patients” value ([1]; Overall) was 0. For the same molecule, the “TRAEs (all Grades): Fatigue, % of patients” value ([1]; Overall) was “(12.5%)”, the “TRAEs (all Grades): Fatigue, patients” value ([1]; Overall) was 3 and the “TRAEs (all Grades): Headache, % of patients” value ([1]; Overall) was “(8.3%)”. The “TRAEs (all Grades): Headache, patients” value ([1]; Overall) was 2, the “TRAEs (all Grades): Lipase increased, % of patients” value ([1]; Overall) was “(4.2%)” and the “TRAEs (all Grades): Lipase increased, patients” value ([1]; Overall) was 1. For the same molecule, the “TRAEs (all Grades): Myalgia, % of patients” value ([1]; Overall) was “(4.2%)”, the “TRAEs (all Grades): Myalgia, patients” value ([1]; Overall) was 1 and the “TRAEs (all Grades): Nausea, % of patients” value ([1]; Overall) was “(8.3%)”. For the same molecule, the “TRAEs (all Grades): Nausea, patients” value ([1]; Overall) was 2, the “TRAEs (all Grades): Peripheral sensory neuropathy, % of patients” value ([1]; Overall) was “(4.2%)” and the “TRAEs (all Grades): Peripheral sensory neuropathy, patients” value ([1]; Overall) was 1. For the same molecule, the “TRAEs (all Grades): Phlebitis, % of patients” value ([1]; Overall) was “(4.2%)”, the “TRAEs (all Grades): Phlebitis, patients” value ([1]; Overall) was 1 and the “TRAEs (all Grades): Pneumonitis, % of patients” value ([1]; Overall) was “(4.2%)”. For the same molecule, the “TRAEs (all Grades): Pneumonitis, patients” value ([1]; Overall) was 1, the “TRAEs (all Grades): Pruritus, % of patients” value ([1]; Overall) was “(8.3%)” and the “TRAEs (all Grades): Pruritus, patients” value ([1]; Overall) was 2. The “TRAEs (all Grades): Rash maculo-papular, % of patients” value ([1]; Overall) was “(8.3%)”, the “TRAEs (all Grades): Rash maculo-papular, patients” value ([1]; Overall) was 2 and the “TRAEs (all Grades): Tumor pain, patients” value ([1]; Overall) was 0. For the same molecule, the “Dose Limiting Toxicity (DLTs) observed” value ([1]; at 60 mg, lipase increase and facial nerve disorder) was “Two”, the “Most common treatment-related adverse events (TRAEs) (>10%)” value ([1]; patients) was “fatigue” and the tolerability ([1]; patients, IV once weekly in a 21-day-cycle) was “well tolerated”. The median survival time [2] was 33.0 days, the “T/C value on the 22nd day after administration” value ([2]; APG-1387 0.2 mg/kg i.v., anti-PD-1 100 μg/mouse i.p., q3d x 2 doses) was 69.6% and the “change of one mPC patient with confirmed SD” value ([3]; 45 mg) was “+6%”. The “treatment duration of one mPC patient with confirmed SD” value ([3]; 45 mg) was over 9 cycles, the “DCR (disease control rate, SD above)” value ([3]; pancreatic cancer) was 4/10 and the “ORR (objective response rate, CR + PR)” value ([3]; pancreatic cancer) was 0. The “Best response: CR” value ([3]; pancreatic cancer, patients) was 0, the “Best response: PD” value ([3]; pancreatic cancer, patients) was 4 and the “Best response: PR” value ([3]; pancreatic cancer, patients) was 0. For the same molecule, the “Best response: SD” value ([3]; pancreatic cancer, patients) was 4.
